From patent EP4725507A1, “POLYPEPTIDE CONJUGATE, PHARMACEUTICAL COMPOSITION CONTAINING POLYPEPTIDE CONJUGATE AND USE THEREOF” (Nanjing Anji Biotechnology Co., Ltd., priority 2023, dated 2025)
Converted amounts (≈) assume the structure as drawn.

What was measured:
[1] = test system: A549 (non-small cell lung cancer cells); assay: Tumor cell proliferation inhibition (CCK8); type: cell-based; conditions: Homo sapiens, 72 h
Source text: (§1) Human highly metastatic hepatocellular carcinoma cells HCCLM3, human highly metastatic gastric cancer cells MKN45, human gastric cancer cells BGC-823 and MGC-803, non-small cell lung cancer cells A549, human pancreatic cancer cells ASPC-1, human colon cancer cells LoVo, human ovarian cancer cells A2780, human cervical cancer cells SiHa, human malignant melanoma cells SK-mel-2 and M14, human osteosarcoma cells Saos-2, human bladder transitional cell carcinoma cells T24, human brain glioblastoma cells U87-MG, human lymphoma cells Raji, and human epidermal cancer cells A431 were selected for the experiment. Among them, HCCLM3 cells, MKN45 cells, BGC-823 cells, MGC-803 cells, A431 cells and A549 cells were provided by Nanjing Anji Biotechnology Co., Ltd., and the other cells were provided by Nanjing Ouji Pharmaceutical Technology Service Co., Ltd.
(§2) The aforementioned tumor cells were preserved in a medium containing 10% fetal bovine serum and 1% penicillin-streptomycin, and incubated at 37°C with 5% CO2 and 95% humidity. The aforementioned tumor cells were cultured in T75 flasks with an experimental cell density of 80%. The aforementioned tumor cell lines were mycoplasma-negative.
(§3) Tumor cells in the logarithmic growth phase were taken for the experiment. The cells were digested, counted, and prepared into a cell suspension with a concentration of 1×10^5 cells/mL, which was then inoculated into a 96-well plate (100 µL per well). The 96-well plate was incubated in a 37°C, 5% CO2 incubator for 24 hours. […] After incubating the plate in the incubator for 72 h, the cell morphology of each group was observed under a microscope. Then, 10 µL of CCK8 solution (Nanjing Enjing Biotechnology Co., Ltd.) was added to each well, and the plate was further incubated in the cell incubator for 4 h. After incubation, the absorbance was measured at 450 nm, and the tumor cell proliferation inhibition rate was calculated. The efficiency ratio was the ratio of the IC50 value of the free drug to that of the polypeptide conjugate. Table 1 Tumor cell proliferation inhibition rates of polypeptide conjugates

[2] = test system: ASPC-1 (human pancreatic cancer cells); assay: Tumor cell proliferation inhibition (CCK8); type: cell-based; conditions: ASPC1, 72 h
Source text: as §1, §2, §3

[3] = test system: HCCLM3 (human highly metastatic hepatocellular carcinoma cells); assay: Tumor cell proliferation inhibition (CCK8); type: cell-based; conditions: 72 h
Source text: as §1, §2, §3

[4] = test system: LoVo (human colon cancer cells); assay: Tumor cell proliferation inhibition (CCK8); type: cell-based; conditions: 72 h
Source text: as §1, §2, §3

[5] = test system: M14 (human malignant melanoma cells); assay: Tumor cell proliferation inhibition (CCK8); type: cell-based; conditions: 72 h
Source text: as §1, §2, §3

[6] = test system: SK-mel-2 (human malignant melanoma cells); assay: Tumor cell proliferation inhibition (CCK8); type: cell-based; conditions: 72 h
Source text: as §1, §2, §3

[7] = test system: SiHa (human cervical cancer cells); assay: Tumor cell proliferation inhibition (CCK8); type: cell-based; conditions: 72 h
Source text: as §1, §2, §3

[8] = test system: U87-MG (human brain glioblastoma cells); assay: Tumor cell proliferation inhibition (CCK8); type: cell-based; conditions: U-87 MG, 72 h
Source text: as §1, §2, §3

[9] = test system: non-small cell lung cancer A549 xenograft tumors; assay: In vivo tumor-inhibitory activity of DOC-AI, A549 xenograft; set-up: species or system BALB/c nude mice; conditions: 6.20 µmol/Kg, 4 days on, 3 days off until day 21
Protocol: Non-small cell lung cancer A549 cells in the vigorous growth stage were taken and inoculated subcutaneously into the right axilla of BALB/c nude mice (Nanjing Zhonghua Biotechnology Co., Ltd.) under sterile conditions, with a cell inoculation amount of 1×10^7. The diameter of transplanted tumors in nude mice was measured with a vernier caliper. When the tumors grew to approximately 50 mm^3, 30 tumor-bearing nude mice with good growth status and relatively uniform tumor size were selected and divided into 5 groups, with 6 mice in each group. The administration frequency was continuous administration for 4 days followed by an interval of 3 days, and this cycle was repeated until day 21. […] The tumor diameter was measured every other day, and the body weight of the nude mice was weighed simultaneously during the measurement of the tumor diameter. After 21 days of administration, the nude mice were euthanized, the tumor inhibition rate (%) was calculated, and the tumor masses were peeled off and weighed.

[10] = test system: gastric cancer MKN45 xenograft tumors; assay: In vivo tumor-inhibitory activity of DOC-AI, MKN45 xenograft; set-up: species or system BALB/c nude mice; conditions: 6.20 µmol/Kg
Protocol: (§4) Non-small cell lung cancer A549 cells and human gastric cancer MKN-45 cells were preserved in F12-K medium containing 10% fetal bovine serum and 1% penicillin + streptomycin, and incubated at 37°C with 5% CO2 and 95% humidity. The aforementioned cells were cultured in T175 flasks with an experimental cell density of 80%. The aforementioned cell lines were mycoplasma-negative. Both A549 cells and MKN-45 cells were provided by Nanjing Anji Biotechnology Co., Ltd.
Gastric cancer MKN45 cells in the vigorous growth stage were taken and inoculated subcutaneously into the right axilla of BALB/c nude mice (Hangzhou Ziyuan Laboratory Animal Technology Co., Ltd.) under sterile conditions, with a cell inoculation amount of 1×10^7. The diameter of transplanted tumors in nude mice was measured with a vernier caliper. When the tumors grew to approximately 50 mm^3, 18 tumor-bearing nude mice with good growth status and relatively uniform tumor size were selected and divided into 3 groups, with 6 mice in each group. The administration frequency was once every 3 days, and this cycle was repeated until day 21. The anti-tumor effect in the nude mice was dynamically observed by measuring the tumor diameter. The tumor diameter was measured every other day, and the body weight of the nude mice was weighed simultaneously during the measurement of the tumor diameter. After 21 days of administration, the nude mice were euthanized, the tumor inhibition rate (%) was calculated, and the tumor masses were peeled off and weighed. Table 7 Results of Detection of In Vivo Tumor-Inhibitory Activity of DOC-AI

[11] = Solubility in water (HPLC, saturated solution); type: physicochemical; conditions: thermodynamic from solid, in water (ultrapure)
Protocol: 25, 50, 100, 200, 300, and 400 µL of the above stock solutions were precisely measured, added into 1 mL volumetric flasks, and diluted to the mark with methanol to obtain a series of standard solutions with concentrations of 25, 50, 100, 200, 300, and 400 µg/mL, respectively. The peak areas of the series of standard solutions were detected by HPLC (mobile phase: 0.065% TFA in water + 0.05% TFA; chromatographic column: YMC-Triart C18; wavelength: 220 nm) to construct a concentration-peak area standard curve, where the abscissa represents concentration and the ordinate represents peak area.
The peak area of the sample was detected by HPLC, and its saturation in water was calculated through the concentration-peak area standard curve. Table 6 Results of detection of solubility of polypeptide conjugates in water

[12] = test system: A2780 (human ovarian cancer cells); assay: Tumor cell proliferation inhibition (CCK8); type: cell-based; conditions: 72 h
Source text: as §1, §2
as §3, with “h.” for “h. After incubation, the absorbance was measured at 450 nm, and the tumor cell proliferation inhibition rate was calculated. The efficiency ratio was the ratio of the IC50 value of the free drug to that of the polypeptide conjugate. Table 1 Tumor cell proliferation inhibition rates of polypeptide conjugates”

[13] = test system: A431 (human epidermal cancer cells); assay: Tumor cell proliferation inhibition (CCK8); type: cell-based; conditions: A-431, 72 h
Source text: as §1, §2
as §3, with “h.” for “h. After incubation, the absorbance was measured at 450 nm, and the tumor cell proliferation inhibition rate was calculated. The efficiency ratio was the ratio of the IC50 value of the free drug to that of the polypeptide conjugate. Table 1 Tumor cell proliferation inhibition rates of polypeptide conjugates”

[14] = test system: BGC-823 (human gastric cancer cells); assay: Tumor cell proliferation inhibition (CCK8); type: cell-based; conditions: 72 h
Source text: as §1, §2
as §3, with “h.” for “h. After incubation, the absorbance was measured at 450 nm, and the tumor cell proliferation inhibition rate was calculated. The efficiency ratio was the ratio of the IC50 value of the free drug to that of the polypeptide conjugate. Table 1 Tumor cell proliferation inhibition rates of polypeptide conjugates”

[15] = test system: MGC-803 (human gastric cancer cells); assay: Tumor cell proliferation inhibition (CCK8); type: cell-based; conditions: 72 h
Source text: as §1, §2
as §3, with “h.” for “h. After incubation, the absorbance was measured at 450 nm, and the tumor cell proliferation inhibition rate was calculated. The efficiency ratio was the ratio of the IC50 value of the free drug to that of the polypeptide conjugate. Table 1 Tumor cell proliferation inhibition rates of polypeptide conjugates”

[16] = test system: MKN45 (human highly metastatic gastric cancer cells); assay: Tumor cell proliferation inhibition (CCK8); type: cell-based; conditions: MKN-45, 72 h
Source text: as §1, §2
as §3, with “h.” for “h. After incubation, the absorbance was measured at 450 nm, and the tumor cell proliferation inhibition rate was calculated. The efficiency ratio was the ratio of the IC50 value of the free drug to that of the polypeptide conjugate. Table 1 Tumor cell proliferation inhibition rates of polypeptide conjugates”

[17] = test system: Raji (human lymphoma cells); assay: Tumor cell proliferation inhibition (CCK8); type: cell-based; conditions: 72 h
Source text: as §1, §2
as §3, with “h.” for “h. After incubation, the absorbance was measured at 450 nm, and the tumor cell proliferation inhibition rate was calculated. The efficiency ratio was the ratio of the IC50 value of the free drug to that of the polypeptide conjugate. Table 1 Tumor cell proliferation inhibition rates of polypeptide conjugates”

[18] = test system: Saos-2 (human osteosarcoma cells); assay: Tumor cell proliferation inhibition (CCK8); type: cell-based; conditions: 72 h
Source text: as §1, §2
as §3, with “h.” for “h. After incubation, the absorbance was measured at 450 nm, and the tumor cell proliferation inhibition rate was calculated. The efficiency ratio was the ratio of the IC50 value of the free drug to that of the polypeptide conjugate. Table 1 Tumor cell proliferation inhibition rates of polypeptide conjugates”

[19] = test system: T24 (human bladder transitional cell carcinoma cells); assay: Tumor cell proliferation inhibition (CCK8); type: cell-based; conditions: 72 h
Source text: as §1, §2
as §3, with “h.” for “h. After incubation, the absorbance was measured at 450 nm, and the tumor cell proliferation inhibition rate was calculated. The efficiency ratio was the ratio of the IC50 value of the free drug to that of the polypeptide conjugate. Table 1 Tumor cell proliferation inhibition rates of polypeptide conjugates”

[20] = test system: human gastric cancer cell MKN45 xenograft tumors; assay: In vivo tumor-inhibitory activity of PTX-AI, MKN45 xenograft; set-up: species or system BALB/c nude mice; conditions: 5.28 µmol/Kg, once every 3 days, 21 days
Protocol: as §4
Human gastric cancer cells MKN-45 in the vigorous growth stage were taken and inoculated subcutaneously into the right axilla of BALB/c nude mice under sterile conditions, with a cell inoculation amount of 5×10^6. The diameter of transplanted tumors in nude mice was measured with a vernier caliper. When the tumors grew to approximately 50mm^3, […] tumor-bearing nude mice with good growth status and relatively uniform tumor size were selected, and divided into 6 groups, including 10 mice in the model group and 8 mice in each of the remaining groups. The anti-tumor effect of the test substance was dynamically observed by measuring the tumor diameter. The tumor diameter was measured every other day, and the body weight of the nude mice was weighed simultaneously during the measurement of the tumor diameter. After 21 days of administration, the nude mice were euthanized, the tumor inhibition rate (%) was calculated, and the tumor masses were peeled off and weighed. Table 3 Detection of In Vivo Tumor-Inhibitory Activity of PTX-AI

[21] = test system: A431 (human epidermal cancer cells); assay: Tumor cell proliferation inhibition (CCK8); type: cell-based; conditions: IC50 of free drug / IC50 of polypeptide conjugate
Source text: as §1, §2, §3

[22] = test system: BGC-823 (human gastric cancer cells); assay: Tumor cell proliferation inhibition (CCK8); type: cell-based; conditions: IC50 of free drug / IC50 of polypeptide conjugate
Source text: as §1, §2, §3

[23] = test system: MGC-803 (human gastric cancer cells); assay: Tumor cell proliferation inhibition (CCK8); type: cell-based; conditions: IC50 of free drug / IC50 of polypeptide conjugate
Source text: as §1, §2, §3

[24] = test system: MKN45 (human highly metastatic gastric cancer cells); assay: Tumor cell proliferation inhibition (CCK8); type: cell-based; conditions: IC50 of free drug / IC50 of polypeptide conjugate
Source text: as §1, §2, §3

[25] = MKN45 xenograft, once every 3 days until day 21

CC(=O)O[C@@]12CO[C@@H]1C[C@H](O)[C@@]1(C)C(=O)[C@H](O)C3=C(C)[C@@H](OC(=O)[C@H](O)[C@@H](NC(=O)OC(C)(C)C)c4ccccc4)C[C@@](O)([C@@H](OC(=O)c4ccccc4)[C@H]21)C3(C)C [DOC, docetaxel]
IC50 [1]: 33.5 nM | IC50 [2]: 4.35 nM | IC50 [3]: 431 nM | IC50 [4]: 992 nM | IC50 [5]: 3.68 nM | IC50 [6]: 0.214 nM | IC50 [7]: 0.235 nM | IC50 [8]: 5.4 nM | Tumor Inhibition Rate [9]: 59.55% | Tumor Weight [9]: 283.00 ± 179.83 mg | body weight changes ([10]; MKN45 xenograft nude mice, during the administration period): showed weight loss | Tumor Inhibition Rate [10, 25]: 73.76±13.15% | Tumor Weight [10, 25]: 579 ± 391 mg | Final Tumor Volume ([10]; MKN45 xenograft, once every 3 days until day 21, in mm³ (unit assumed)): 256.67±391.25 | solubility at 15 min [11]: 0.0274 µg/mL (≈ 0.0339 µM)

CC(=O)O[C@H]1C(=O)[C@@]2(C)[C@H]([C@H](OC(=O)c3ccccc3)[C@]3(O)C[C@H](OC(=O)[C@H](O)[C@@H](NC(=O)c4ccccc4)c4ccccc4)C(C)=C1C3(C)C)[C@]1(OC(C)=O)CO[C@@H]1C[C@@H]2O [PTX, paclitaxel]
IC50 [3]: 9.4 nM | IC50 [12]: 0.19 nM | IC50 [13]: 0.17 nM | IC50 [14]: 8.11 nM | IC50 [15]: 23.6 nM | IC50 [16]: 3.21 nM | IC50 [17]: 43.9 nM | IC50 [18]: 0.77 nM | IC50 [19]: 38.6 nM | Tumor Inhibition Rate [20]: 47.6% | Tumor Weight [20]: 0.791 ± 0.151 g | Final Tumor Volume ([20]; in mm³ (unit assumed)): 782.0±105.9 | solubility at 15 min [11]: 0.12 µg/mL (≈ 0.141 µM)

CC(=O)O[C@H]1C(=O)[C@@]2(C)[C@H]([C@H](OC(=O)c3ccccc3)[C@]3(O)C[C@H](OC(=O)[C@H](OC(=O)CCCC(=O)N[C@@H](CCCNC(=N)N)C(=O)N[C@@H](CO)C(=O)N4CCC[C@H]4C(=O)N[C@@H](Cc4ccc(O)cc4)C(=O)N[C@@H](C)C(=O)N[C@@H](CC(N)=O)C(=O)N[C@@H](CO)C(=O)O)[C@@H](NC(=O)c4ccccc4)c4ccccc4)C(C)=C1C3(C)C)[C@]1(OC(C)=O)CO[C@@H]1C[C@@H]2O [PTX-5-AI]
Efficiency Ratios [21]: 2.13 | Efficiency Ratios [22]: 1.90 | Efficiency Ratios [23]: 1.27 | Efficiency Ratios [24]: 1.65
